This note sets out measurements from patent US12318393B2, “Modulators of orphan nuclear receptors for NASH and other metabolic disorders” (Emory University, priority 2018, dated 2025).

The nature of series [1]: Cellular toxicity assay in human PBM cells. It counts as cell-based. As to conditions: read-out: Cytotoxicity (IC50, μM) PBM. On the procedure: (§1) The toxicity of the compounds was assessed in human PBM, CEM (human lymphoblastoid), and Huh-7 cells, as described previously (see Schinazi R. F., Sommadossi J.-P., Saalmann V., Cannon D. L., Xie M.-Y., Hart G. C., Smith G. A. & Hahn E. F. Antimicrob. Agents Chemother. 1990, 34, 1061-67). Cycloheximide was included as positive cytotoxic control, and untreated cells exposed to solvent were included as negative controls. The cytotoxicity IC50 was obtained from the concentration-response curve using the median effective method described previously (see Chou T.-C. & Talalay P. Adv. Enzyme Regul. 1984, 22, 27-55; Belen'kii M. S. & Schinazi R. F. Antiviral Res. 1994, 25, 1-11).

Series [2] in a line: Cellular toxicity assay in Huh-7 cells. The class given is cell-based. Particulars: human, read-out: Cytotoxicity (IC50, μM) Huh-7. On the procedure: as §1
For a further series, the system named is miR-122. Kind of series: Expression of RORα-regulated microRNA in Huh-7 cells (qRT-PCR). It counts as cell-based, human. As to conditions: 1 μM, 24 hours. On the procedure:
Secreted microRNA levels in the medium of Huh-7 cells were analyzed by qRT-PCR and were normalized to spiked C. elegans miR-39. miR-18 and miR-93 served as controls for secreted microRNA and were not affected following Compound 1 addition.
RNA extraction and quantitative Real-Time PCR analysis. Total RNA, including small RNAs, were isolated from 200 μL of plasma or culture media samples using the miRNeasy Mini kit (Qiagen, Valencia, CA, USA) with 2 minor modifications. First, 200 μl of plasma or culture media were lysed with 1 ml of Qiazol solution. Second, a 50 pmol/l of synthesized single strand Caenorhabditis elegans miRNA (cel-miR-39) was added as the spike-in control to monitor extraction efficiency. The remainder of the RNA extraction was performed according to the manufacturer's instructions. miRNAs were eluted with 30 μl of RNase-free water. […] The fold expression and statistical significance were calculated using the 2-ΔΔ Ct method. […]
For orientation: In qPCR the cycle at which signal appears reflects the starting amount.

For the next series, the system named is CD4+ Th17 cells. Nature of the series: Modulation of Th17 populations in human PBMCs (flow cytometry). The class given is cell-based. Particulars: 10 μM, 3 day assay. On the procedure:
Human peripheral blood mononuclear cells (PBMCs) were isolated from four healthy donors. Four experiments were conducted and analyzed by flow cytometry over 3 day assay. The control group had no drug treatment, a second were treated with 10 μM Compound 1, a third group was stimulated with PHA/IL-2 without treatment, and the fourth group was stimulated with PHA/IL-2 and incubated with 10 μM Compound 1. […] Further, Compound 1 has no effect on Th17 populations in the absence of PHA/IL-2 stimulation.

For a further series, the system named is miR-122 and Gpase6. Kind of series: Modulation of RORα-regulated genes in healthy C57BL/6 mice. The class given is in vivo. Particulars: 7.5 mg/kg i.p. once. On the procedure: Healthy C57BL/6 mice were injected i.p. once with 7.5 mg/kg Compound 1 or saline control. Mice were sacrificed at 1, 2, and 7 day time points post-injection. miR-122 and Gpase 6 mRNA levels were determined by qRT-PCR for each time point. MicroRNA levels were normalized to RNU6; plasma miR-122 was normalized to spiked in C. elegans miR-39; and mRNA levels were normalized to HPRT.
RNA extraction and quantitative Real-Time PCR analysis. Total RNA, including small RNAs, were isolated from 200 μL of plasma or culture media samples using the miRNeasy Mini kit (Qiagen, Valencia, CA, USA) with 2 minor modifications. First, 200 μl of plasma or culture media were lysed with 1 ml of Qiazol solution. Second, a 50 pmol/l of synthesized single strand Caenorhabditis elegans miRNA (cel-miR-39) was added as the spike-in control to monitor extraction efficiency. The remainder of the RNA extraction was performed according to the manufacturer's instructions. miRNAs were eluted with 30 μl of RNase-free water. Total RNA, including miRNAs, from cells or tissues were isolated using TRIzol reagent (Invitrogen, Carlsbad, CA, USA). cDNA was synthesized using the Quanta Biosciences qScript™ cDNA Synthesis Kit (95047-100) for mRNA analysis, and using the qScript™ microRNA cDNA Synthesis Kit (95107-100) for miRNAs analysis. qRT-PCR of miRNAs and mRNA was performed using the ABI 7900 HT Real-Time PCR System and a SYBR Green PCR Kit: Quanta Cat. #84018 and #84071 respectively. The fold expression and statistical significance were calculated using the 2-ΔΔ Ct method. All experiments were performed in triplicates.

Another series deals with HuH7 cell. Kind of series: LDH release from HuH7 cells. As to conditions: HuH7, 16 h exposure, data not shown. The class given is cell-based, human.

In general, IC50 refers to the concentration that gives 50% inhibition.

SMILES strings stand for the structures.

On to `O=C1Nc2cc(C(=O)N3CCC(Cc4ccccc4)CC3)ccc2Nc2ccccc21` [Compound 1], for which the half-maximal inhibitory concentration (IC50) in series [1] was 92.4 µM. Further, the half-inhibitory concentration (IC50) in series [2] came out at 10.4 µM. Moreover, the “secreted miR-18 and miR-93 levels in medium (control microRNAs)” value in the series on miR-122 is recorded as “not affected”. Also, the “secretion of miR-122 (relative microRNA levels in Huh7 medium)” value in the series with miR-122 (vs DMSO) is “specifically increases”. Moreover, the “total viability of CD4+ T cells” value with CD4+ Th17 cells (even under PHA/IL-2 stimulation) was “no effect”. In the series on CD4+ Th17 cells (relative to vehicle-control), the “Th17 total population, presence of PHA/IL-2 stimulation” value is “decreases”. Moreover, the “Th17 populations, absence of PHA/IL-2 stimulation” value in the series on CD4+ Th17 cells (unstimulated) is listed as “no effect”. The “miR-18 and miR-126 levels (controls)” value with miR-122 and Gpase6 (over 7 days) is given as “not affected”. Moreover, in the series on miR-122 and Gpase6 (up to 7 days post-injection), the “Gpase6 mRNA (RORα-regulated gene)” value is “significantly up-regulated”; the “miR-122 levels in plasma and liver” value is “increased”. Also, in the series with HuH7 cell, the “toxicity to the cells as measured by LDH release” value is recorded as “no apparent toxicity”.
